Numbered stars: 1 amine (or outer) side, 2 acyl side, 3 side chain; on linkers, the order of the positions; unused ones are H or OH. Bridge positions count the residues as written; N and C are the ends. Square brackets hold non-standard residues; d marks the D form. Peptide text beside a SMILES is read from it. * marks the point of attachment. TBMB(SCH2CH2NH-DOTA) = O=C(O)CN1CCN(CC(=O)O)CCN(CC(=O)NCCSCc2cc(C[*:1])cc(C[*:2])c2)CCN(CC(=O)O)CC1; X5 = O=C(O)CN1CCN(CC(=O)O)CCN(CC(=O)NCCSCc2cc(CSC[C@@H](CO)N[*:2])cc(C[*:1])c2)CCN(CC(=O)O)CC1; X1 = O=C(O)CN1CCN(CC(=O)O)CCN(CC(=O)N2CCN(Cc3cc(C[*:1])cc(C[*:2])c3)CC2)CCN(CC(=O)O)CC1; mXylylene = c1cc(C[*:1])cc(C[*:2])c1; X41 = NCCCCCC(=O)NCCCOCCOCCOCCCN*; X44 = O=C(CC1CCN([*:1])CC1)[*:2]; 2Thi = N[C@@H](Cc1cccs1)C(=O)O; Suc = O=C(CCC(=O)[*:2])[*:1]; X18 = NCCNCC(CNCCN)C(=O)*; Nle = CCCC[C@H](N)C(=O)O; Hexanoyl = CCCCCC(=O)*; AEEA = NCCOCCOCC(=O)O; βAla = NCCC(=O)O; Sar = CNCC(=O)O
Assays:
[1] = biological target: T1, FAP-expressing human WI-38 fibroblasts (Homo sapiens, UniProt Q12884); test: Competitive FACS binding assay; conditions: pIC50 Category (FACS), competition with 3 nM Cy5-labeled compound, 4° C., 1 hour
T1 construct: FAP-expressing human WI-38 fibroblasts (ECACC) were cultured in EMEM; host or cells: WI-38 human fibroblasts
T1 sequence (Q12884 1-760): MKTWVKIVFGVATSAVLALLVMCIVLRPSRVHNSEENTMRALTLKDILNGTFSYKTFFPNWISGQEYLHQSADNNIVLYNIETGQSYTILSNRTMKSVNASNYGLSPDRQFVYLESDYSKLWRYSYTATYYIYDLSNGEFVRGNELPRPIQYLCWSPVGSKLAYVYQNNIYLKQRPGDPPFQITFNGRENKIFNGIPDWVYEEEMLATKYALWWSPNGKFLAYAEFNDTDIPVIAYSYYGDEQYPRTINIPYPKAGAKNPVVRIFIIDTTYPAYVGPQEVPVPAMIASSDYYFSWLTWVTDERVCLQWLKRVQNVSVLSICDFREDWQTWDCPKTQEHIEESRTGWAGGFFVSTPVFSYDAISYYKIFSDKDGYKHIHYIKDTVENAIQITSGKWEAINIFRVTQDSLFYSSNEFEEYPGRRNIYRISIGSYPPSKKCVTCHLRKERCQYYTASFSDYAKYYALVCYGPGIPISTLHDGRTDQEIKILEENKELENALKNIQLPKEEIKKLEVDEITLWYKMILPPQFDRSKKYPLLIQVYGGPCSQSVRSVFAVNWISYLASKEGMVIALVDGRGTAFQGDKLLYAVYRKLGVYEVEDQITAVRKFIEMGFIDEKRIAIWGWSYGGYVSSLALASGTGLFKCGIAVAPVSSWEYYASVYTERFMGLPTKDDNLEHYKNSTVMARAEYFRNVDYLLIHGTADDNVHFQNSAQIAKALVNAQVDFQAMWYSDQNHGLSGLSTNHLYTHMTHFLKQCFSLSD
Method: Cells were analyzed in an Attune NxT flow cytometer. […]

Human recombinant FAP = biological target: T2, Human recombinant FAP (Homo sapiens, UniProt Q12884); test: FRET-based FAP protease activity assay; format: biochemical; set-up: purchased R&D systems 3715-SE; conditions: pIC50 Category (Activity), FRET substrate, 37° C.
T2 sequence (Q12884 1-760): T1 sequence (Q12884 1-760)

Row | IC50 ([1]; WI-38 fibroblasts) [nM] | IC50 (Human recombinant FAP; recombinant human FAP) [nM] | SMILES | IC50 [1] [nM] | IC50 (Human recombinant FAP) [nM]
1 | – | – | CCCCCC(=O)N[C@H]1CSCc2cc(CSCCNC(=O)CN3CCN(CC(=O)O)CCN(CC(=O)O)CCN(CC(=O)O)CC3)cc(c2)CSC[C@@H](CO)NC(=O)[C@H](Cc2ccccc2)NC(=O)[C@H](CCC(N)=O)NC(=O)[C@H]([C@@H](C)O)NC(=O)[C@@H]2CCCN2C(=O)[C@@H]2CCCN2C1=O [3BP-3767, Hex-[Cys(tMeBn(DOTA-AET))-Pro-Pro-Thr-Gln-Phe-Cysol]] (Hexanoyl-CPPTQF; linker 1-C via X5) | < 10 | < 10
2 | < 10 | < 10 | CCCCCC(=O)N[C@H]1CSCc2cccc(c2)CSC[C@@H](C(=O)N[C@@H](CC(=O)O)C(=O)N2CCC(CC(=O)N[C@@H](CCCNC(=N)N)C(N)=O)CC2)NC(=O)[C@H](Cc2ccccc2)NC(=O)[C@H](CCC(=O)O)NC(=O)[C@H]([C@@H](C)O)NC(=O)[C@@H]2CCCN2C(=O)[C@@H]2CCCN2C1=O [3BP-3302, Hex-[Cys(3MeBn)-Pro-Pro-Thr-Glu-Phe-Cys]-Asp-Cmp-Arg-NH2] (Hexanoyl-CPPTEFCD[X44]R-NH2; linker 1-7 via mXylylene) | – | –
3 | – | – | CCCC[C@H](NC(=O)CCC(=O)NCCCOCCOCCOCCCNC(=O)CCCCCN)C(=O)N[C@H]1CSCc2cc(cc(CN3CCN(C(=O)CN4CCN(CC(=O)O)CCN(CC(=O)O)CCN(CC(=O)O)CC4)CC3)c2)CSC[C@@H](C(=O)N[C@@H](CC(=O)O)C(N)=O)NC(=O)[C@H](Cc2ccccc2)NC(=O)[C@H](CCC(N)=O)NC(=O)[C@H]([C@@H](C)O)NC(=O)[C@@H]2CCCN2C(=O)[C@@H]2CCCN2C1=O [3BP-4004, H-Ahx-Ttds-Nle-[Cys-(tMeBn(DOTA-PP))-Pro-Pro-Thr-Gln-Phe-Cys]-Asp-NH2] ({X41-Suc}-[Nle]CPPTQFCD-NH2; linker 2-8 via X1) | 10 to 79.4 | < 10
4 | – | – | CCCCCC(=O)N[C@H]1CSCc2cc(CSCCNC(=O)CN3CCN(CC(=O)O)CCN(CC(=O)O)CCN(CC(=O)O)CC3)cc(c2)CSC[C@@H](C(=O)O)NC(=O)[C@H](Cc2cccnc2)NC(=O)[C@H](CCC(N)=O)NC(=O)[C@H]([C@@H](C)O)NC(=O)[C@@H]2CCCN2C(=O)[C@@H]2CCCN2C1 [3BP-3664, Hex-[Cys(tMeBn(DOTA-AET))-Pro-Pro-Thr-Gln-Mpa-Cys]-OH] | < 10 | < 10
5 | < 10 | 10 to 79.4 | CSCC[C@H](NC(C)=O)C(=O)N[C@H]1CSCc2cccc(c2)CSC[C@@H](C(=O)N[C@@H](CC(=O)O)C(=O)N[C@@H](C)C(=O)N[C@@H](Cc2ccccc2)C(=O)N[C@@H](CCCNC(=N)N)C(=O)N[C@@H](CC(=O)O)C(N)=O)NC(=O)[C@H](Cc2ccccc2)NC(=O)[C@H](CCC(=O)O)NC(=O)[C@H]([C@@H](C)O)NC(=O)[C@@H]2CCCN2C(=O)[C@@H]2CCCN2C1=O [3BP-3195, Ac-Met-[Cys(3MeBn)-Pro-Pro-Thr-Glu-Phe-Cys]-Asp-Ala-Phe-Arg-Asp-NH2] (Ac-MCPPTEFCDAFRD-NH2; linker 2-8 via mXylylene) | – | –
6 | – | – | CCCC[C@H](NC(=O)COCCOCCNC(=O)C(CNCCN)CNCCN)C(=O)N[C@H]1CSCc2cccc(c2)CSC[C@@H](C(=O)O)NC(=O)[C@H](Cc2ccccc2)NC(=O)[C@H](CCC(=O)O)NC(=O)[C@H]([C@@H](C)O)NC(=O)[C@@H]2CCCN2C(=O)[C@@H]2CCCN2C1=O [3BP-4228, N4Ac-O2O-Nle-[Cys-(3MeBn)-Pro-Pro-Thr-Glu-Phe-Cys]-OH] ({X18-AEEA}-[Nle]CPPTEFC-OH; linker 2-8 via mXylylene) | > 1000 | 100 to 794
7 | > 1000 | > 1000 | CCCCCC(=O)N[C@H]1CSCc2cccc(c2)CSC[C@@H](C(N)=O)NC(=O)[C@H](Cc2ccccc2)NC(=O)[C@H](C)NC(=O)[C@H]([C@@H](C)O)NC(=O)[C@@H]2CCCN2C(=O)[C@@H]2CCCN2C1=O [3BP-3348, Hex-[Cys(3MeBn)-Pro-Pro-Thr-Ala-Phe-Cys]-NH2] (Hexanoyl-CPPTAFC-NH2; linker 1-7 via mXylylene) | – | –
8 | – | – | CCCCCC(=O)N[C@H]1CSCc2cc(CSCCNC(=O)CCC(=O)NCCCOCCOCCOCCCNC(=O)CN(CCN(CCN(CC(=O)O)CC(=O)O)CC(=O)O)CC(=O)O)cc(c2)CSC[C@@H](C(=O)O)NC(=O)[C@H](Cc2ccccc2)NC(=O)[C@H](CCC(N)=O)NC(=O)[C@H]([C@@H](C)O)NC(=O)[C@@H]2CCCN2C(=O)[C@@H]2CCCN2C1=O [3BP-4352, Hex-[Cys-(tMeBn(DTPA2-Ttds-AET))-Pro-Pro-Thr-Gln-Phe-Cys]-OH] | 100 to 794 | 10 to 79.4
9 | – | – | CCCCCC(=O)N[C@H]1CSCc2cc(cc(CN3CCNCC3)c2)CSC[C@@H](C(=O)O)NC(=O)[C@H](Cc2ccccc2)NC(=O)[C@H](CCC(N)=O)NC(=O)[C@H]([C@@H](C)O)NC(=O)[C@@H]2CCCN2C(=O)[C@@H]2CCCN2C1=O [3BP-4181, Hex-[Cys-(tMeBn(H-PP))-Pro-Pro-Thr-Gln-Phe-Cys]-OH] | 10 to 79.4 | 10 to 79.4
10 | < 10 | < 10 | CSCC[C@H](NC(C)=O)C(=O)N[C@H]1CSCc2cccc(c2)CSC[C@@H](C(=O)N[C@@H](CC(=O)O)C(=O)N[C@@H](Cc2c[nH]cn2)C(=O)N[C@@H](Cc2ccccc2)C(=O)N[C@@H](CCCNC(=N)N)C(N)=O)NC(=O)[C@H](Cc2ccccc2)NC(=O)[C@H](CCC(=O)O)NC(=O)[C@H]([C@@H](C)O)NC(=O)[C@@H]2CCCN2C(=O)[C@@H]2CCCN2C1=O [3BP-3200, Ac-Met-[Cys(3MeBn)-Pro-Pro-Thr-Glu-Phe-Cys]-Asp-His-Phe-Arg-NH2] (Ac-MCPPTEFCDHFR-NH2; linker 2-8 via mXylylene) | – | –
11 | 100 to 794 | 100 to 794 | CSCC[C@H](NC(C)=O)C(=O)N[C@H]1CSCc2cccc(c2)CSC[C@@H](C(=O)N[C@@H](CC(=O)O)C(=O)N[C@@H](Cc2c[nH]cn2)C(=O)N[C@@H](Cc2ccccc2)C(=O)N[C@@H](C)C(=O)N[C@@H](CC(=O)O)C(N)=O)NC(=O)[C@H](Cc2ccccc2)NC(=O)[C@H](CCC(=O)O)NC(=O)[C@H]([C@@H](C)O)NC(=O)[C@@H]2CCCN2C(=O)[C@@H]2CCCN2C1=O [3BP-3197, Ac-Met-[Cys(3MeBn)-Pro-Pro-Thr-Glu-Phe-Cys]-Asp-His-Phe-Ala-Asp-NH2] (Ac-MCPPTEFCDHFAD-NH2; linker 2-8 via mXylylene) | – | –
12 | – | – | CCCC[C@H](NC(=O)CC[C@H](NC(=O)C(CNCCN)CNCCN)C(=O)O)C(=O)N[C@H]1CSCc2cccc(c2)CSC[C@@H](C(=O)O)NC(=O)[C@H](Cc2ccccc2)NC(=O)[C@H](CCC(N)=O)NC(=O)[C@H]([C@@H](C)O)NC(=O)[C@@H]2CCCN2C(=O)[C@@H]2CCCN2C1=O [3BP-4244, N4Ac-gGlu-Nle-[Cys-(3MeBn)-Pro-Pro-Thr-Gln-Phe-Cys]-OH] | > 1000 | > 1000
13 | – | – | CCCCCC(=O)N[C@H]1CSCc2cc(CSCCNC(=O)CN3CCN(CC(=O)O)CCN(CC(=O)O)CCN(CC(=O)O)CC3)cc(c2)CSC[C@@H](C(N)=O)NC(=O)[C@H](Cc2ccccc2)NC(=O)[C@H](CCC(N)=O)NC(=O)[C@H]([C@@H](C)O)NC(=O)[C@@H]2CCCN2C(=O)CN(C)C1=O [3BP-3744, Hex-[Cys(tMeBn(DOTA-AET))-Nmg-Pro-Thr-Gln-Phe-Cys]-NH2] (Hexanoyl-C[Sar]PTQFC-NH2; linker 1-7 via TBMB(SCH2CH2NH-DOTA)) | < 10 | < 10
14 | – | – | CCCCCC(=O)N[C@H]1CSCc2cc(CSCCNC(=O)CCOCCOCCOCCOCCOCCOCCNC(=O)C(CNCCN)CNCCN)cc(c2)CSC[C@@H](C(=O)O)NC(=O)[C@H](Cc2ccccc2)NC(=O)[C@H](CCC(N)=O)NC(=O)[C@H]([C@@H](C)O)NC(=O)[C@@H]2CCCN2C(=O)[C@@H]2CCCN2C1=O [3BP-4300, Hex-[Cys-(tMeBn(N4Ac-PEG6-AET))-Pro-Pro-Thr-Gln-Phe-Cys]-OH] | 10 to 79.4 | < 10
15 | < 10 | < 10 | CSCC[C@H](NC(C)=O)C(=O)N[C@H]1CSCc2cccc(c2)CSC[C@@H](C(=O)N[C@@H](CC(=O)O)C(=O)N[C@@H](Cc2c[nH]cn2)C(=O)N[C@@H](Cc2cccs2)C(=O)N[C@@H](CCCNC(=N)N)C(=O)N[C@@H](CC(=O)O)C(N)=O)NC(=O)[C@H](Cc2ccccc2)NC(=O)[C@H](CCC(=O)O)NC(=O)[C@H]([C@@H](C)O)NC(=O)[C@@H]2CCCN2C(=O)[C@@H]2CCCN2C1=O [3BP-3193, Ac-Met-[Cys(3MeBn)-Pro-Pro-Thr-Glu-Thi-Cys]-Asp-His-Phe-Arg-Asp-NH2] (Ac-MCPPTEFCDH[2Thi]RD-NH2; linker 2-8 via mXylylene) | – | –
16 | < 10 | 10 to 79.4 | CCCCCC(=O)N[C@H]1CSCc2cccc(c2)CSC[C@@H](C(=O)NCCC(=O)O)NC(=O)[C@H](Cc2ccccc2)NC(=O)[C@H](CCC(=O)O)NC(=O)[C@H]([C@@H](C)O)NC(=O)[C@@H]2CCCN2C(=O)[C@@H]2CCCN2C1=O [3BP-3371, Hex-[Cys(3MeBn)-Pro-Pro-Thr-Glu-Phe-Cys]-Bal-OH] (Hexanoyl-CPPTEFC[βAla]-OH; linker 1-7 via mXylylene) | – | –
